{"source": "patent US20090239839A1", "about": "“RECEPTOR ANTAGONIST” (TAKEDA PHARMACEUTICAL COMPANY LIMITED, priority 2003, published 2009)", "assay_type_in_all_cases": "in vivo", "key": {"Wistar male rat [1]": {"test_system": "Wistar male rat", "assay": "Blood glucose concentration increasing activity of RFRP (intravenous administration to rat)", "details": "RFRP-1 10 nmol/kg intravenous, 5 minutes and 15 minutes after administration, vs physiological saline group", "text": "(§1) In the figure, (-∘-) represents a blood glucose concentration of a physiological saline administration group, (-▴-) represents a blood glucose concentration of an RFRP-1 1 nmol/kg administration group, and (-▪-) represents a blood concentration of an RFRP-1 10 nmol/kg administration group.\nAs RFRP, human RFRP-1 (37 amino acids) consisting of an amino acid sequence of 56th (Ser) to 92nd (Phe) of an amino acid sequence represented by SEQ ID No.: 4. Hereinafter, this peptide is abbreviated as RFRP-1.\nIn order to study influence of peripheral administration of RFRP-1 on a blood glucose concentration, operation for collecting blood under free moving was performed. A mature Wistar male rat (weight 310 to 350 g at operation) was anesthetized with 50 mg/kg of pentobarbital by intraperitoneal administration. The rat was fixed on an anatomic pad in a supine position, and a left jugular vein was exposed. […]\nOvernight after operation, 300 μl of blood was collected using a tuberculin injection syringe having a dose of 1 ml and a 25 gauge injection needle (both Telmo) before administration of RFRP-1. […] A blood glucose concentration was measured using Fuji Drichem 3500 (FUJIFILM)."}, "Wistar male rat [2]": {"test_system": "Wistar male rat", "assay": "Pancreatic glucagon secretion promoting activity of RFRP (blood glucagon and insulin in rat)", "details": "RFRP-1 intravenous; for blood glucagon concentration: vs physiological saline group", "text": "as §1, with “blood glucagon” for “blood glucose”, “blood glucagon” for “blood”\nas §1, with “blood insulin” for “blood glucose”, “blood insulin” for “blood”, “group. A value indicates mean±standard deviation (mean±SE) (n=4).” for “group.”\nIn order to study mechanism of blood glucose concentration increasing activity of RFRP-1, influence of RFRP-1 on a blood concentration of glucagon and insulin which are known as a hormone imparting a variation to a blood glucose concentration was studied. A mature Wistar male rat (weight 310 to 350 g at operation) was operated for collecting blood under free moving. Overnight after operation, 300 μl of a blood was collected using a tuberculin injection syringe having a dose of 1 ml and a 25 gauge injection needle (both Telmo) before administration of RFRP-1. In order to prevent blood coagulation, 3 μl of a 300 KIU/ml aprotinin solution containing 3 mg/ml EDTA had been placed into an injection syringe in advance. An Otsuka physiological saline or RFRP-1 dissolved in a physiological saline (80 nmol/mL) was intravenously administered through a tube at 1 mL/Kg. After 1, 3, 5 and 15 minutes from initiation of intravenous administration, each 300 μl of blood was collected from a jugular vein. The collected blood was centrifuged (13,000 rpm, 5 minutes) using a minor amount high speed cooling centrifuge (MR-150, Tommy Seiko), and the supernatant (plasma) was recovered."}, "Wistar male rat [3]": {"test_system": "Wistar male rat", "assay": "Amnesia promoting activity of RFRP (cued fear conditioning, ventricle administration)", "details": "RFRP-1 3 nmol into a ventricle, on 2 day (48 hours after training), sound stimulation", "procedure": "FIG. 4 indicates a ratio of freezing in a sound clue when RFRP-1 (-□-) and a physiological saline (-∘-) are administered in a ventricle. An ordinate axis indicates freezing (%) of one day and two day after administration, respectively, expressed by mean±standard error.\nSince an RFRP nerve is projected on amygdaloid complex, in order to study involvement of RFRP in amygdaloid complex-dependent memory•learning ability, influence under cued fear conditioning due to ventricle administration of RFRP-1 was studied. A mature Wistar male rat (weight 280 to 320 g at operation) was anesthetized with 50 mg/kg of pentobarbital by intraperitoneal administration, and a rat was fixed in a brain localization apparatus. A tooth cutting bar was set lower by 3.3 mm from an interoralline. A cranial bone was exposed, and a hole was opened in a bone using a dental drill in order to embed a guide cannulae AG-12 (internal diameter 0.4 mm, external diameter 0.5 mm, Eicom) in a ventricle. In addition, an anchor screw was embedded in four places at a periphery thereof. A stainless guide cannulae AG-12 was inserted so that its tip was positioned at an upper part of a side ventricle. A localization coordinate was set to be AP: −0.8 mm, L: 1.5 mm, H, 4.5 mm from a Blegma according to Atlas of Paxinos and Watson (1986). […]"}}}
{"substance": "RFRP-1: human RFRP-1 (37 amino acids) consisting of an amino acid sequence of 56th (Ser) to 92nd (Phe) of SEQ ID No.: 4 (SLNFEELKDWGPKNVIKMSTPAVNKMPHSFANLPLRF; Human)", "values": [{"measurement": "blood glucose concentration", "setting": "Wistar male rat [1]", "value": "significant (p<0.05, n=4) activity of increasing a blood glucose concentration"}, {"measurement": "blood insulin concentration", "setting": "Wistar male rat [2]", "value": "a variation due to administration of RFRP-1 was not recognized"}, {"measurement": "blood glucagon concentration", "setting": "Wistar male rat [2]; 5 minutes after administration", "value": "significant (p<0.01) increase was continued"}, {"measurement": "blood glucagon concentration", "setting": "Wistar male rat [2]; two minutes after administration", "value": "significant (p<0.01) increase in a blood glucagon concentration was recognized"}, {"measurement": "rate of freezing", "setting": "Wistar male rat [3]", "value": 35.5, "unit": "%"}]}
